The values below come from patent US10039729B2, “Use of kukoamine A and kukoamine B” (Tianjin Chase Sun Pharmaceutical Co., Ltd., priority 2010, dated 2018).

The test system of this experiment is CpG DNA. Nature of the experiment: Affinity biosensor binding with immobilized CpG DNA. Particulars: for affinity with CpG DNA: 100 μM operating solution; for affinity with CpG DNA / affinity / binding with CpG DNA: 5 μl loaded; for affinity / binding with CpG DNA: 4 μM solution. The source says: Immobilization of lipid A and CpG DNA: Using Optically-Based Affinity Biosensors technology, Lipid A, the biologic active centres of LPS, and CpG DNA were respectively, immobilized on the reacting surfaces of cuvettes in an IAsys plus affinity biosensor according to the manufacturer's instructions of IAsys Affinity Sensor. The end of hydrophobic side chain of lipid A was immobilized on cuvette with hydrophobic surface, and the phosphate group (active group of lipid A) at the other end was floating and exposing to the outside, which act as target spot of binding with active constituents for disease treatment in traditional Chinese medicine. The active constituents in solution were binded to lipid A through electrostatic interaction. Biotinylated CpG DNA was immobilized on the surface of a biotin cuvette by linking to avidin, which had been coated on the surface of a biotin cuvette, and then the unlabeled group of CpG DNA was floating and exposing to the outside, which act as target spot of binding with active constituents for disease treatment in traditional Chinese medicine. The active constituents in solution were binded to CpG DNA through the electrostatic interaction and embodiment.
Detection of the aqueous herbal extract: The crude drugs of 114 traditional Chinese herbs were pulverized. 1 g of each powder was added with 10 ml distilled water, boiled at 100° C. for 1.5 h, centrifuged at 4000 rpm for 20 min, filtrated and then collected the supernatant. 5 μl of aqueous herbal extracts of each herb were used to detect their binding with lipid A or CpG DNA. Here are the steps: Binding reaction: 45 μl PBS was added in cuvette; then 5 μl samples was added in cuvette; liquid were draw-out after binding response reach a plateau; Dissociation: Cuvette was washed thrice in 50 μl PBS; liquid were draw-out after dissociation reach a plateau; Regeneration: Cuvette was washed thrice in 50 μl 0.1N HCl; liquid were draw-out after regeneration reach a plateau; Cuvette was washed thrice in 50 μl PBS; next cycle was started to detect new sample after curves back to baseline levels and smoothed. Data analysis was performed using the FASTplot software after detection finished.
2.1.1 Methods: 500 g Lycii cortex was added with 5 L distilled water, soaked for 24 h, boiled at 100 for 1 h, filtered by coarse filter paper, and centrifuged at 8000 rpm/min for 30 min, and the supernatant was collected and concentrated to 1 L under reduced pressure. The supernatant was loaded onto AB-8 Macroporous adsorption resin, and eluted with distilled water and gradient ethanol (10%, 20%, 40% and 100%) successively. The eluted fractions were separately collected, and lyophilized after concentrated under reduced pressure. Five constituents were obtained, and named CL-1 to -5 according to their elution order. CL constituents were separately dissolved in PBS to make 1.0 mg/ml solution, 5 μl of which were loaded. Their binding activity with lipid A and CpG DNA were detected according to methods of embodiment 1.
2.2.1 Methods: CL-4 lyophilization powder was diluted into ultrapure water to make 100 mg/ml solution, filtered by a 0.45 μm filter membrane, loaded onto D001 cationic exchange gel column, and eluted with distilled water, 0.3 M Na2HPO4 and 0.5 M Na2HPO4 successively. The eluted fractions were separately collected, and lyophilized after concentrated under reduced pressure. Three constituents were obtained, and named CL-4a, -4b and -4c according to their elution order. CL-4 constituents were separately dissolved in PBS to make 1.0 mg/ml solution, 5 μl of which were loaded. Their binding activity with lipid A and CpG DNA were detected according to methods of embodiment 1.
3.1 Methods: KA and KB were separately dissolved to make 100 μM operating solution; 5 μl of the solution was loaded; their binding activity with lipid A and CpG DNA were detected according to methods of embodiment 1. […]

pKd: −log10 of the molar value. Read-outs that look alike come from different tables or passages of the source.

Turning to `O=C(CCc1ccc(O)c(O)c1)NCCCNCCCCNCCCNC(=O)CCc1ccc(O)c(O)c1` [KA, Kukoamine A], the “affinity with CpG DNA” value is recorded as “high affinity”.

As to `NCCCN(CCCCNCCCNC(=O)CCc1ccc(O)c(O)c1)C(=O)CCc1ccc(O)c(O)c1` [KB, Kukoamine B], the “affinity / binding with CpG DNA” value was “high affinity” and the “affinity with CpG DNA” value is “high affinity”. Also, the pKd (KB 0.25-4 μM, IAsys FASTfit, read-out: dissociation equilibrium constant (KD) with CpG DNA) was 6.18. For the same compound, the pKd (with CpG DNA, read-out: dissociation equilibrium constant (KD = kass/kdiss)) was 6.18.

On to polymyxin B [PMB, reference compound], for which the “affinity / binding with CpG DNA” value was “almost has no binding effects”.
